Experimental findings from PubChem BioAssay (NCI) are described below.

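1) Cells in 96-well plates. 2) Compound, 48 h, 5 concentrations. 3) Linear interpolation between surrounding doses. 4) Unreached endpoint = highest concentration. TGI denotes the concentration required for complete inhibition of growth.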 Bounds are passed on as bounds.

Among the test systems are CAKI-1 renal; COLO 205 colon; HCT-15 colon; MDA-MB-231 breast; MDA-N; PC-3 prostate; SF-295 CNS; SK-MEL-5 melanoma; SNB-75 CNS; T-47D breast.
Holding throughout (assay): NCI tumour cell line growth inhibition, 48 h

`COc1ccc(NC(=O)CC(=O)n2nc(C)c(N=Nc3cccc(C)c3)c2C)cc1`: the TGI in the assay with CAKI-1 renal, in the assay with COLO 205 colon, with HCT-15 colon, in the assay on MDA-MB-231 breast, in the assay with MDA-N and with PC-3 prostate was above 100 µM in each case. The TGI in the assay with SF-295 CNS, in the assay on SK-MEL-5 melanoma, in the assay with SNB-75 CNS and with T-47D breast was above 100 µM throughout.
Turning to `CCCC(O)c1cn(C(NC(=O)c2ccccc2)P(=O)(OCC)OCC)nn1` (stereo not drawn), the TGI in the assay on CAKI-1 renal, with COLO 205 colon, with HCT-15 colon, in the assay with MDA-MB-231 breast, in the assay with MDA-N and in the assay on PC-3 prostate was above 100 µM each time. For the same compound, the TGI with SF-295 CNS, with SK-MEL-5 melanoma, in the assay with SNB-75 CNS and in the assay with T-47D breast was above 100 µM throughout.
Take `Cc1c(-c2ccccc2)nn2cc(-c3ccccc3)nnc12`: the TGI is above 100 µM with CAKI-1 renal; 62 µM with COLO 205 colon; 44.5 µM in the assay on HCT-15 colon; 62.9 µM in the assay with MDA-MB-231 breast; above 100 µM in the assay with MDA-N; above 100 µM in the assay on PC-3 prostate. In addition, the TGI in the assay with SF-295 CNS is above 100 µM; in the assay with SK-MEL-5 melanoma, 41.4 µM; in the assay on SNB-75 CNS, above 100 µM; in the assay with T-47D breast, above 100 µM.
With `CC(=O)OCc1cncn1S(=O)(=O)c1ccc(C)cc1`, the TGI in the assay on CAKI-1 renal was above 100 µM; with COLO 205 colon, above 100 µM; with HCT-15 colon it was above 100 µM; in the assay on MDA-MB-231 breast, above 100 µM; with MDA-N, 45.6 µM; in the assay on PC-3 prostate, above 100 µM. Further, the TGI with SF-295 CNS, in the assay with SK-MEL-5 melanoma, with SNB-75 CNS and with T-47D breast was above 100 µM throughout.
In the case of `CC1(C)C(CCO)CC1n1cc(I)c(=O)[nH]c1=O` (stereo not drawn), the TGI with CAKI-1 renal, in the assay on COLO 205 colon, in the assay with HCT-15 colon, with MDA-MB-231 breast, in the assay with MDA-N and in the assay with PC-3 prostate was above 100 µM each time. Besides, the TGI in the assay on SF-295 CNS, with SK-MEL-5 melanoma, with SNB-75 CNS and in the assay with T-47D breast was above 100 µM in each case.
As to `O=C(c1ccccc1)n1cc(-c2ccccc2)c2c(=O)[nH]cnc21`, the TGI in the assay with CAKI-1 renal, in the assay with COLO 205 colon, in the assay with HCT-15 colon, in the assay on MDA-MB-231 breast, in the assay on MDA-N and in the assay on PC-3 prostate was above 100 µM throughout. The TGI in the assay on SF-295 CNS, in the assay with SK-MEL-5 melanoma, in the assay on SNB-75 CNS and in the assay with T-47D breast was above 100 µM throughout.
Take `CC(=O)OC(Cc1ccc2ccccc2n1)(C(F)(F)F)C(F)(F)F`: the TGI was 2.96 µM with CAKI-1 renal; 1.98 µM in the assay on COLO 205 colon; 7.46 µM in the assay on HCT-15 colon; 4.12 µM with MDA-MB-231 breast; 3.54 µM in the assay with MDA-N; 11.7 µM in the assay on PC-3 prostate. Also, the TGI was found to be 10.9 µM in the assay on SF-295 CNS, 1.38 µM in the assay on SK-MEL-5 melanoma, 13.5 µM in the assay on SNB-75 CNS and 0.912 µM in the assay with T-47D breast.
Turning to `COc1ccc(/C=C2\CCS(=O)(=O)c3ccccc3C2=O)cc1OC`, the TGI with CAKI-1 renal is above 100 µM; with COLO 205 colon it was above 100 µM; in the assay with HCT-15 colon, 50.4 µM; in the assay on MDA-MB-231 breast, above 100 µM; with MDA-N it was above 100 µM; with PC-3 prostate it was above 100 µM. In addition, the results for the TGI in the assay with SF-295 CNS, in the assay on SNB-75 CNS and in the assay on T-47D breast were above 100 µM, 98.4 µM and above 100 µM, respectively.
For the compound `CSC1C(=O)Nc2ccc3ccccc3c21` (stereo not drawn), the TGI was 38.9 µM in the assay on CAKI-1 renal; 43.3 µM in the assay on COLO 205 colon; 38.4 µM in the assay with HCT-15 colon; 56.5 µM in the assay on MDA-MB-231 breast; above 100 µM in the assay on MDA-N; 35 µM in the assay with PC-3 prostate. Moreover, the TGI with SF-295 CNS was above 100 µM; in the assay with SK-MEL-5 melanoma, 57.4 µM; with SNB-75 CNS it was 70.5 µM; with T-47D breast, 29.4 µM.
Regarding `NNc1nncc2[nH]cnc12`, the TGI in the assay on CAKI-1 renal, with COLO 205 colon, in the assay with HCT-15 colon, with MDA-MB-231 breast, in the assay with MDA-N and with PC-3 prostate was above 100 µM in each case. In addition, the TGI in the assay on SF-295 CNS, in the assay on SK-MEL-5 melanoma, with SNB-75 CNS and in the assay on T-47D breast was above 100 µM in each case.
On to `Oc1ccc(Cl)cc1-c1cc(-c2ccccc2)nc(NCN2CCCCC2)n1`, for which the TGI in the assay on CAKI-1 renal, with COLO 205 colon, with HCT-15 colon, with MDA-MB-231 breast, in the assay with MDA-N and with PC-3 prostate was above 100 µM each time. In addition, the TGI with SK-MEL-5 melanoma, in the assay with SNB-75 CNS and with T-47D breast was above 100 µM throughout.
Turning to `O=[N+]([O-])c1ccc(N/N=C/CC(O)(C(F)(F)F)C(F)(F)F)c([N+](=O)[O-])c1`, the TGI in the assay with CAKI-1 renal, with COLO 205 colon, with HCT-15 colon, with MDA-MB-231 breast, with MDA-N and in the assay on PC-3 prostate was above 10 µM throughout. The TGI with SF-295 CNS, in the assay with SK-MEL-5 melanoma, in the assay with SNB-75 CNS and in the assay on T-47D breast was above 10 µM each time.
Turning to `CCOC(=O)c1c(-c2ccc(Cl)cc2)c(C#N)c(=S)n(C2OC(COC(C)=O)C(OC(C)=O)C(OC(C)=O)C2OC(C)=O)c1-c1ccccc1` (stereo not drawn), the TGI in the assay on CAKI-1 renal, in the assay on COLO 205 colon, with HCT-15 colon, in the assay on MDA-MB-231 breast, in the assay on MDA-N and in the assay on PC-3 prostate was above 100 µM in each case. Also, the TGI in the assay on SF-295 CNS, in the assay with SK-MEL-5 melanoma, in the assay with SNB-75 CNS and in the assay on T-47D breast was above 100 µM each time.
